# Laboratory results taken from US20090074861A1, “STABLE TABLET CONTAINING DROXIDOPA” (DAINIPPON SUMITOMO PHARMA CO., LTD., priority 2005, published 2009).
# Assay: Coloring and deliquescence of compressed droxidopa/additive mixtures on preservation
# Format: physicochemical
# Experimental: Droxidopa and the following excipients were mixed at 1:1 in a mortar and the mixture was compressed at a pressure of 20 kgf/cm^2 using an oil hydraulic press (manufactured by RIKEN). The obtained tablets were preserved under the respective conditions of 60° C. […] The 60° C. 2 week preservation product was measured for the color difference from the initial stage preservation product using a spectral calorimeter (SE-2000: manufactured by Nippon Denshoku Industries Co., Ltd.).
# Droxidopa and the following excipients were mixed at 4:1 in a mortar and the mixture was compressed at a pressure of 20 kgf/cm^2 using an oil hydraulic press (manufactured by RIKEN) .
structure (smiles),measurement,setting,value
"N[C@H](C(=O)O)[C@H](O)c1ccc(O)c(O)c1 [droxidopa alone (without disintegrant), droxidopa]",60° C. × 2 W color difference,"droxidopa:additive 1:1 compressed tablet, difference from initial stage product",2.73
same,60° C. × 2 W color difference,droxidopa:additive 4:1 compressed tablet,2.73
